# How the values were obtained:
# [1] = biological target: T1, CHK1 (Homo sapiens, UniProt O14757); experiment: KinaseProfiler protein kinase activity; assay type: biochemical; conditions: 10 μM X-370
# T1 construct: purchased Millipore KinaseProfiler
# Method: (§1) In vitro kinase profile assays were analyzed by the Kinase Profiler Service (Millipore, United Kingdom) following its guidelines. A GST-tagged human p110δ and regulatory full-length p85 were co-expressed in insect cell Sf9. Recombinant protein was extracted by affinity purification. The PI3K kinase activity was determined in the increasing concentration of ATP and X-370 with PI3-Kinase HTRF™ Assay kit (Millipore) as described previously. […]
# (§2) Table S1: Inhibitory activity of X-370 against protein kinases
# (§3) kinome at 10 μM. The relative kianse activity left in the presence of 10 μM were shown (Mi llipore
# (§4) Kinase activity (% of control) Kinase activity (% of control) Kinase activity (% of control)
# (§5) CDK1/cyclinB 97 Lck activated 89 Ret 125
# [2] = biological target: T2, EGFR (Homo sapiens, UniProt P00533); experiment: KinaseProfiler protein kinase activity; assay type: biochemical; conditions: 10 μM X-370
# T2 construct: purchased Millipore KinaseProfiler
# Method: as §1, §2, §3, §4, §5
# [3] = biological target: T3, FAK (Homo sapiens, UniProt Q05397); experiment: KinaseProfiler protein kinase activity; assay type: biochemical; conditions: 10 μM X-370
# T3 construct: purchased Millipore KinaseProfiler
# T3 sequence (Q05397 whole entry): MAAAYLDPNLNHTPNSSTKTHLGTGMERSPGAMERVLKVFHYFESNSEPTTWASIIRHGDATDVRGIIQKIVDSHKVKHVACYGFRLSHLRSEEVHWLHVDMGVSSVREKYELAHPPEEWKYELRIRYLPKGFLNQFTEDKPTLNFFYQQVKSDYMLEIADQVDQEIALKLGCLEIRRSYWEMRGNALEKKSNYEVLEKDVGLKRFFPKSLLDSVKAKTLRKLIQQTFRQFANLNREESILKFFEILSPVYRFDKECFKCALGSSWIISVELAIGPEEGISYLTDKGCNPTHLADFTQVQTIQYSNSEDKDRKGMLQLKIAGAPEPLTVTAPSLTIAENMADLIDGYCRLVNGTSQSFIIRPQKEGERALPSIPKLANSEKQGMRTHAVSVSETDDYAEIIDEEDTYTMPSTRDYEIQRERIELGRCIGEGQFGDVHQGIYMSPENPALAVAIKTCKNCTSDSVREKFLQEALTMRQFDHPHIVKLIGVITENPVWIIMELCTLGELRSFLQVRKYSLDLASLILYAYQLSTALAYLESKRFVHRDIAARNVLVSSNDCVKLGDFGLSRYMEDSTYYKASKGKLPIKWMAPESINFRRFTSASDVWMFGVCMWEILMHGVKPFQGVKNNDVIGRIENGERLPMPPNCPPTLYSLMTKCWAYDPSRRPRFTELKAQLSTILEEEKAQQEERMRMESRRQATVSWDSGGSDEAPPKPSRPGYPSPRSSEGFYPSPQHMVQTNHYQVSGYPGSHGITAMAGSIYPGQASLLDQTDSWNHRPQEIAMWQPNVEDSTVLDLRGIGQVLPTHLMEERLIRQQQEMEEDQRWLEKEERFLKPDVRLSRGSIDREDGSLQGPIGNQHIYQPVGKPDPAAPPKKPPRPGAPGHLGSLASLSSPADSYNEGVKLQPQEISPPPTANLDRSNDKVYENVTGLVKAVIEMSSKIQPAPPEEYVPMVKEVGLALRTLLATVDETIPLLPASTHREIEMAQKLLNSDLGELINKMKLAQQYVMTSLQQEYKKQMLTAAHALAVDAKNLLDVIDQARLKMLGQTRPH
# Method: as §1, §2, §3, §4, §5
# [4] = biological target: T4, JAK2 (Homo sapiens, UniProt O60674); experiment: KinaseProfiler protein kinase activity; assay type: biochemical; conditions: 10 μM X-370
# T4 construct: purchased Millipore KinaseProfiler
# Method: as §1, §2, §3, §4, §5
# [5] = biological target: T5, JNK1 α1 (Homo sapiens, UniProt P45983); experiment: KinaseProfiler protein kinase activity; assay type: biochemical; conditions: 10 μM X-370
# T5 construct: purchased Millipore KinaseProfiler
# T5 sequence (P45983 1-384 isoform P45983-2): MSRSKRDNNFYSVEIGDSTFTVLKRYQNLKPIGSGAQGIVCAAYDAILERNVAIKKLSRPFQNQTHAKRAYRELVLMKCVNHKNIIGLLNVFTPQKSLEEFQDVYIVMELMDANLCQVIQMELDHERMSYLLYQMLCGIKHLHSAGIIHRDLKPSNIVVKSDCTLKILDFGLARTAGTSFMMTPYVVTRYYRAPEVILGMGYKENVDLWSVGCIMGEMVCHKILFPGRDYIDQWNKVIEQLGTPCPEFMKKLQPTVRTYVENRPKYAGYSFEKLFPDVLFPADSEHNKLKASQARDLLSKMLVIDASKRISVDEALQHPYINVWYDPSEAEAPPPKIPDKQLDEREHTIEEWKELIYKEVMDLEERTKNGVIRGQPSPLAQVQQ
# Method: as §1, §2, §3, §4, §5
# [6] = biological target: T6, KDR (Homo sapiens, UniProt P35968); experiment: KinaseProfiler protein kinase activity; assay type: biochemical; conditions: 10 μM X-370
# T6 construct: purchased Millipore KinaseProfiler
# Method: as §1, §2, §3, §4, §5
# [7] = biological target: T7, MAPK1 (Homo sapiens, UniProt P27361); experiment: KinaseProfiler protein kinase activity; assay type: biochemical; conditions: 10 μM X-370
# T7 construct: purchased Millipore KinaseProfiler
# Method: as §1, §2, §3, §4, §5
# [8] = biological target: T8, NEK11 (Homo sapiens, UniProt Q8NG66); experiment: KinaseProfiler protein kinase activity; assay type: biochemical; conditions: 10 μM X-370
# T8 construct: purchased Millipore KinaseProfiler
# Method: as §1, §2, §3, §4, §5
# [9] = biological target: T9, PDK1 (Homo sapiens, UniProt O15530); experiment: KinaseProfiler protein kinase activity; assay type: biochemical; conditions: 10 μM X-370
# T9 construct: purchased Millipore KinaseProfiler
# Method: as §1, §2, §3, §4, §5
# [10] = biological target: T10, PKB α (Homo sapiens, UniProt P31749); experiment: KinaseProfiler protein kinase activity; assay type: biochemical; conditions: 10 μM X-370
# T10 construct: purchased Millipore KinaseProfiler
# T10 sequence (P31749 whole entry): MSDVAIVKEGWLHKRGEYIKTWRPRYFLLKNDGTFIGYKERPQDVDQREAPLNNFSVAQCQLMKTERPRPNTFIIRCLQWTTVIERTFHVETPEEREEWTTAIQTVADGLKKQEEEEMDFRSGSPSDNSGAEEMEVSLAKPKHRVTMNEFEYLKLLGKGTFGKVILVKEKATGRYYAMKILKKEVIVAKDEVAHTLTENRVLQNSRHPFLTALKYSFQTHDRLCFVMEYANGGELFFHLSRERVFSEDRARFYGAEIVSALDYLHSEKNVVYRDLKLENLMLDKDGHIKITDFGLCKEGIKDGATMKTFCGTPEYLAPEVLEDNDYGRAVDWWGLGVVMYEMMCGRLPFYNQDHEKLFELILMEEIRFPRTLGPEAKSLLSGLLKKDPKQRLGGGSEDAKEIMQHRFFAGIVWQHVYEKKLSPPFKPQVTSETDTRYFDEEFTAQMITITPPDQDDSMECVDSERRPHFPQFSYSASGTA
# Method: as §1, §2, §3, §4, §5
# [11] = biological target: T11, Plk1 (Homo sapiens, UniProt P53350); experiment: KinaseProfiler protein kinase activity; assay type: biochemical; conditions: 10 μM X-370
# T11 construct: purchased Millipore KinaseProfiler
# T11 sequence (P53350 whole entry): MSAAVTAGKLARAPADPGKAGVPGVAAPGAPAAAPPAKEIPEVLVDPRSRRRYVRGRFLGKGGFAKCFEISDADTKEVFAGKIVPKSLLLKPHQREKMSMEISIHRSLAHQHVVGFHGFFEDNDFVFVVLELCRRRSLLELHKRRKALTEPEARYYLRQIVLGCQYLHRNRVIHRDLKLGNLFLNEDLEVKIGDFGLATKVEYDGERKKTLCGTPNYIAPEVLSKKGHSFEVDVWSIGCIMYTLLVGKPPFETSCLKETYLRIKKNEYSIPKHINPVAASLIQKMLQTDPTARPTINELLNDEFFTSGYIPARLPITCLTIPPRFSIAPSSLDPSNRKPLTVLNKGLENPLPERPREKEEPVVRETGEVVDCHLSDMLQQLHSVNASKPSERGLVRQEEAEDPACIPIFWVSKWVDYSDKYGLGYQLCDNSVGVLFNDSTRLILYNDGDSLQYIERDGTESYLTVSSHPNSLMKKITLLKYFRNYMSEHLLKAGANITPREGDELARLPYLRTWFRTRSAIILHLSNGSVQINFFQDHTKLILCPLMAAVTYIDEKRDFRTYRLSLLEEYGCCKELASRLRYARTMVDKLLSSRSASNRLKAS
# Method: as §1, §2, §3, §4, §5
# [12] = biological target: T12, SGK (Homo sapiens, UniProt O00141); experiment: KinaseProfiler protein kinase activity; assay type: biochemical; conditions: 10 μM X-370
# T12 construct: purchased Millipore KinaseProfiler
# T12 sequence (O00141 whole entry): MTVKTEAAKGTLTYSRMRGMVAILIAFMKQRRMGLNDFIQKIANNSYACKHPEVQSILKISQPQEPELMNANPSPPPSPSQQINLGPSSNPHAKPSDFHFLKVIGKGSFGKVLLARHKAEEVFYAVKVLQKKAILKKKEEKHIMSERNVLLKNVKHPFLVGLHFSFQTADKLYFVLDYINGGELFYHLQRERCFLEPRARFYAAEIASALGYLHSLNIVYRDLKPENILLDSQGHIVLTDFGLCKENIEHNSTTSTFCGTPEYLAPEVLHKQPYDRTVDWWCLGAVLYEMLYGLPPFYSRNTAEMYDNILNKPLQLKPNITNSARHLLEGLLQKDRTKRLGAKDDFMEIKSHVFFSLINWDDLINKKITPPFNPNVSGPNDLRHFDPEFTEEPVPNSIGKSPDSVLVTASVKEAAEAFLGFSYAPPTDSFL
# Method: as §1, §2, §3, §4, §5
# [13] = biological target: T13, TrkA (Homo sapiens, UniProt P04629); experiment: KinaseProfiler protein kinase activity; assay type: biochemical; conditions: 10 μM X-370
# T13 construct: purchased Millipore KinaseProfiler
# T13 sequence (P04629 33-796): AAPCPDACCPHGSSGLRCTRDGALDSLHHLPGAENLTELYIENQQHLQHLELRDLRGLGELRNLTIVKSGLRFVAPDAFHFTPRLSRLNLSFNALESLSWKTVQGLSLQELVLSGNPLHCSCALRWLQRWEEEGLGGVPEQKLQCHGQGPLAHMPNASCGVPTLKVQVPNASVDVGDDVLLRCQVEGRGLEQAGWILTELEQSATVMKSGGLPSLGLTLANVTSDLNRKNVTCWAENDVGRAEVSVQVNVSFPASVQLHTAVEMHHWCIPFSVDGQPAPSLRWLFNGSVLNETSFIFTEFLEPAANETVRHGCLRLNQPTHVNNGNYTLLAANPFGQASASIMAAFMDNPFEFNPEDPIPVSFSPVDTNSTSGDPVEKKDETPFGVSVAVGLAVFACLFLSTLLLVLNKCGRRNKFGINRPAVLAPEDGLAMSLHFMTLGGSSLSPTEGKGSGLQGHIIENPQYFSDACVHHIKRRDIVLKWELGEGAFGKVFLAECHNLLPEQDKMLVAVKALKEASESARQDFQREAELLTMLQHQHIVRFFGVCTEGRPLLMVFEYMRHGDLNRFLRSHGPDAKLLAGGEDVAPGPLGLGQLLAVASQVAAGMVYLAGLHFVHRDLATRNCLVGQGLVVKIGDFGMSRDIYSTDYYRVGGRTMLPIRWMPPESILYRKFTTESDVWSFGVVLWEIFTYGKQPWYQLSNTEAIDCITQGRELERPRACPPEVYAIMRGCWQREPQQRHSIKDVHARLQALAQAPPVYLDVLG
# Method: as §1, §2, §3, §4, §5
# [14] = biological target: T14, cKit (Homo sapiens, UniProt P10721); experiment: KinaseProfiler protein kinase activity; assay type: biochemical; conditions: 10 μM X-370
# T14 construct: purchased Millipore KinaseProfiler
# Method: as §1, §2, §3, §4, §5
# [15] = biological target: T15, mTOR/FKBP12 (Homo sapiens, UniProt P42345); experiment: KinaseProfiler protein kinase activity; assay type: biochemical; conditions: 10 μM X-370
# T15 construct: purchased Millipore KinaseProfiler
# T15 sequence (P42345 1362-2549 limits assumed): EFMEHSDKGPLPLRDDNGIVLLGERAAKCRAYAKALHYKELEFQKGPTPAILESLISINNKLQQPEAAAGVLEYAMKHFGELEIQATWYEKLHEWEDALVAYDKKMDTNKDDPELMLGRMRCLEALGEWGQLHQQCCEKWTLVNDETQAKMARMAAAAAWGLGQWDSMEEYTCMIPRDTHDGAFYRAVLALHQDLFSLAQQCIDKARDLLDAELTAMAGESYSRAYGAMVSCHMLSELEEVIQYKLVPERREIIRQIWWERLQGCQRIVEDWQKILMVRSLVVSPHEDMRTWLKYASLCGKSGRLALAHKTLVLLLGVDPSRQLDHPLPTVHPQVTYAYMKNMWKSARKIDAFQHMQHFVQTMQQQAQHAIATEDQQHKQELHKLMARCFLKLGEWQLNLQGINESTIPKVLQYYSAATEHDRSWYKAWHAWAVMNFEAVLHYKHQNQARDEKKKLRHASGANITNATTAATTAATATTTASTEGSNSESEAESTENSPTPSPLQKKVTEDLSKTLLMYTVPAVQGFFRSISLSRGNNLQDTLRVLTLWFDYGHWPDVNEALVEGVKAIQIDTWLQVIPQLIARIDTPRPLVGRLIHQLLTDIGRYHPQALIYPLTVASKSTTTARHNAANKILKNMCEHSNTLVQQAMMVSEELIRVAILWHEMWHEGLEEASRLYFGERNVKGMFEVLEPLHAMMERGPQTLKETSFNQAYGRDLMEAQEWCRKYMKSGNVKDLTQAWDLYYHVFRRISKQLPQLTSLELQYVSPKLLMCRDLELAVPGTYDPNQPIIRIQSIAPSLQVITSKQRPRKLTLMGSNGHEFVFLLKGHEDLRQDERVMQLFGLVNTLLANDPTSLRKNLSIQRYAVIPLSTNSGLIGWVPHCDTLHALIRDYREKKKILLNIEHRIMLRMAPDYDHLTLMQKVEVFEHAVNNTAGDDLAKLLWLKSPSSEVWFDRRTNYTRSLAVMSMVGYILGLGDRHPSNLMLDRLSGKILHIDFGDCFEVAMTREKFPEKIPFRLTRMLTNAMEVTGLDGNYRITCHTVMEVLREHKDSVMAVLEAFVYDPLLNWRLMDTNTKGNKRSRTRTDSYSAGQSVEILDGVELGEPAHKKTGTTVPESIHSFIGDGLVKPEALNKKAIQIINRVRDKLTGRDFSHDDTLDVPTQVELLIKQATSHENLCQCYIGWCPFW
# Method: as §1, §2, §3, §4, §5
# [16] = tested on: Raji cells; experiment: BrdU incorporation assay; assay type: cell-based, human; conditions: 1 μM, 24 h
# Method: Simultaneous targeting of PI3Kδ and a PI3Kδ-dependent MEK1/2-Erk1/2 pathway for therapy in pediatric B-cell acute lymphoblastic […]
# Cells were treated as indicated conditions and then subjected to lysate to perform standard Western blot as described previously1. Briefly, whole-cell lysates and SDS-loading buffer diluted cell fractions were analyzed on SDS-PAGE gels. Transfer to nitrocellulose membranes, nonfat milk blocking, probing with indicated primary antibodies and the corresponding HRP-conjugated second antibodies.
# Chemiluminescence were performed and captured using ImageQuant LAS 4000 (GE healthcare Life Sciences, Piscataway, NJ, USA) and band intensity was measure both with ImageQuant™ TL (GE Healthcare Life Sciences) 2.
# Caspase 3/7 activity assay
# Raji cells were treated with or without X-370 at 1 μM, 5μM and 10 μM for 24, 48 and 72 hours, thenwere measured using the Caspase-Glo® 3/7 Assay (Promega, US) following the protocol and relative caspase-3/7 activity was normalized to cell number which DMSO control was the base line.
# 5-bromo-2'-deoxyuridine (BrdU) incorporation Assay
# 5-bromo-2'-deoxyuridine (BrdU) incorporation was performed using FITC BrdU Flow Kit (BD Pharmingen, San Diego, CA) according to the provided protocol.
# Figure S1;. CAL-101 docked to the crystal structure of PI3Kδ. […]
smiles,measurement,setting,value
O=C(N1CCCC1)N1CCC(n2cnc3c(-n4c(C(F)F)nc5ccccc54)nc(N4CCOCC4)nc32)CC1 [X-370],Kinase activity (% of control),[1],74 % of control
same,Kinase activity (% of control),[2],90 % of control
same,Kinase activity (% of control),[3],99 % of control
same,Kinase activity (% of control),[4],109 % of control
same,Kinase activity (% of control),[5],90 % of control
same,Kinase activity (% of control),[6],90 % of control
same,Kinase activity (% of control),[7],81 % of control
same,Kinase activity (% of control),[8],95 % of control
same,Kinase activity (% of control),[9],94 % of control
same,Kinase activity (% of control),[10],87 % of control
same,Kinase activity (% of control),[11],100 % of control
same,Kinase activity (% of control),[12],72 % of control
same,Kinase activity (% of control),[13],101 % of control
same,Kinase activity (% of control),[14],104 % of control
same,Kinase activity (% of control),[15],48 % of control
same,DNA synthesis (BrdU incorporation),[16],readily inhibited

# Source: paper PMC4279406, “Simultaneous targeting of PI3Kδ and a PI3Kδ-dependent MEK1/2-Erk1/2 pathway for therapy in pediatric B-cell acute lymphoblastic leukemia” (Oncotarget, 2014)
